Test results as given in US8143254B2, “Methods for modulating ion channels” (Cornell Research Foundation, Inc., priority 2005, dated 2012).

Tested on: Kv3.4
Assay: TEVC of X. laevis oocytes expressing Kv3.4
Type: cell-based
Conditions: for mean inhibition at 0 mV relative to +50 mV: Kv3.4, voltage dependence of block
Excerpt: Kv2.1 mutants were constructed using the QuickChange Multi Site-Directed Mutagenesis Kit (Stratagene, La Jolla, Calif.). […] For oocyte expression, Kv3.4 was in pBF1, Kv4.2 was in pRAT. cRNA transcripts were produced from SacII-linearized (Kv2.1), Mlullinearized (Kv3.4) and Not1-linearized (Kv4.2) DNA templates using the T3 (Kv2.1), SP6 (Kv3.4) and T7 (Kv4.2) mMessage mMachine kits (Ambion, Austin, Tex.). cRNA was quantified by spectrophotometry and its size integrity verified by gel electophoresis. Defolliculated stage V and VI Xenopus laevis oocytes (purchased from Nasco, Grand Island, N.Y.) were injected with 5 ng of cRNA encoding Kv2.1, Kv3.4 or Kv4.2. Chinese Hamster Ovary (CHO) cells were transfected with 0.25 μg Kv2.1 cDNA, 2 μg blank plasmid and 2 μg Green fluorescent Protein in pBOB using Supetfect transfection reagent (Qiagen) 24 hours before whole-cell voltage clamp studies.
Oocytes were bathed in a small-volume Warner oocyte bath and viewed with a Fisher dissection microscope. Bath solution for whole-cell oocyte recordings was (in mM): 96 NaCl, 4 KCl, 0.7 MgCl2, 1 CaCl2, 10 HEPES (pH 7.4); whole-cell oocyte TEVC pipettes were of 0.2-2 M resistance when filled with 3 M KCl. Experiments were performed 24-48 hours after cRNA injection. For assessment of current-voltage relationships in the absence or presence of dabco derivatives, oocytes were held at −80 mV, stepped for 2 seconds at voltages between −80 mV and +60 mV in 20 mV steps (Kv2.1) or between −80 and +50 mV in 10 mV steps (Kv3.4), then held for 500 ms at −40 mV before returning to the holding potential. For assessment of block during wash-in of dabco derivatives at a single voltage, oocytes were held at −80 mV, and repetitively stepped to 0 mV for 2 s with an interpulse interval of 10 s or 60 s as indicated. A range of concentrations of dabco or dabco derivatives were washed in via the bath solution during repetitive single-voltage pulses (after an initial period of 5 pulses with control solution to ensure current stabilization) until equilibrium block was achieved, to establish dose-responses. […] Washout was performed after the highest concentration of blocker was washed in. In cases where washout was achieved, only those recordings in which current returned to within 10% of original current level were used for construction of dose-response curves. […] As controls for this protection analysis, JC638.2a or MTSET were washed in alone until equilibrium block, then washed out.
Data analysis: Current-voltage relationships were obtained by measuring peak current during depolarizing pulses. Inhibition constants for DABCO blockers were calculated after generating a dose response curve by fitting with a logistic dose-response function y=A2+[A1−A2/1+(x/x0)^p], where A1 is the maximum response plateau, A2 is the minimum response plateau, x is drug concentrator, x0 is the IC50, and p the Hill slope. Data analysis was performed using […] 9 (Axon Instruments, Foster City, Calif.) and tabulated in Excel 5.0. Graphs were generated using Origin 6.1. Data are expressed as mean±SEM, with n specifying the number of independent experiments. Statistical significance was assessed by one-way ANOVA with p<0.05 being indicative of significance.

CCCCCCCCCCCC[N+]12CCN(CC1)CC2 [JE188, 1-aza-4-azonia-4-dodecylbicyclo[2.2.2]octane] was tested, and the “inhibition of Kv3.4” value (50 μM) was “significantly inhibited”, the “inhibition of Kv3.4” value (250 μM) was “almost complete inhibition” and the “mean inhibition at 0 mV relative to +50 mV” value was 2 fold.

In the case of CCCCCCCCCCCCCCCC[N+]12CCN(CC1)CC2 [TA279, 1-aza-4-azonia-4-hexadecylbicyclo[2.2.2]octane], the “inhibition of Kv3.4” value (1 μM) is reported as “inhibiting”, the “inhibition of Kv3.4” value (5 mM) is reported as “almost complete inhibition” and the “mean inhibition at 0 mV relative to +50 mV” value is reported as 1.5 fold. For the same compound, the “sensitivity of Kv3.4 channels to compound relative to externally-applied TEA” value (externally applied) was 500 fold.
